Source: ChEMBL document CHEMBL2203251, “Discovery of two clinical histamine H(3) receptor antagonists: trans-N-ethyl-3-fluoro-3-[3-fluoro-4-(pyrrolidinylmethyl)phenyl]cyclobutanecarboxamide (PF-03654746) and trans-3-fluoro-3-[3-fluoro-4-(pyrrolidin-1-ylmethyl)phenyl]-N-(2-methylpropyl)cyclobutanecarboxamide (PF-03654764)” (J Med Chem, 2011)
Where “and” joins values, the source holds several entries; their conditions need not be identical. Equal entries are not always repeated.

Legend:
in vivo [1] = conditions: Sprague-Dawley, rat, po
Description: Toxicity in po dosed Sprague-Dawley rat administered for 14 days

Homo sapiens [2] = species on record: Homo sapiens; assay: Selectivity ratio of Ki for human histamine H1 receptor to Ki for human histamine H3 receptor
in vitro [3] = conditions: rat, plasma
Description: Fraction unbound in rat plasma

in vitro [4] = conditions: human, Caco-2
Description: Permeability across apical to basolateral side in human Caco2 cells at 2 uM

in vivo [5] = conditions: Sprague-Dawley, rat, po; remark: listed apart in the source
Description: Tmax in po dosed Sprague-Dawley rat administered for 14 days

MDR1 (human) = assay: in vitro; conditions: dog, MDCK-MDR1
Description: Efflux ratio of permeability across basal to apical side over apical to basolateral side in dog MDCK cells expressing human MDR1

Homo sapiens [6] = species on record: Homo sapiens; assay: Selectivity ratio of Ki for human histamine H2 receptor to Ki for human histamine H3 receptor
in vivo [7] = conditions: beagle, dog, plasma, po
Description: AUC (0 to 24 hrs) in po dosed beagle dog administered for 7 days

in vitro [8] = conditions: human, liver microsomes
Description: Half life in human liver microsomes

in vivo [9] = conditions: Sprague-Dawley, rat, po; remark: listed apart in the source
Description: Oral bioavailability in Sprague-Dawley rat

in vivo [10] = conditions: Sprague-Dawley, rat, po; remark: listed apart in the source
Description: Tmax in po dosed Sprague-Dawley rat administered for 4 days

in vivo [11] = conditions: beagle, dog, po
Description: Cmax in po dosed beagle dog administered for 7 days

Histamine H3 receptor [12] = target: T1, Histamine H3 receptor (Homo sapiens, UniProt Q9Y5N1)
Description: Antagonist activity at human histamine H3 receptor expressed in human HEK293 cells assessed as inhibition of forskolin-induced cAMP release pretreated 10 mins prior forskolin stimulation measured after 4.5 hrs by spectrofluorimetric analysis

Histamine H3 receptor [13] = target: T1, Histamine H3 receptor; remark: listed apart in the source
Description: Displacement of [3H]-n-alpha-methylhistamine from human histamine H3 receptor homogenate after 60 mins by scintillation counting

in vivo [14] = conditions: beagle, dog, po; remark: listed apart in the source
Description: Tmax in po dosed beagle dog administered for 7 days

in vivo [15] = conditions: Sprague-Dawley, rat, po; remark: listed apart in the source
Description: Cmax in po dosed Sprague-Dawley rat administered for 14 days

Histamine H3 receptor [16] = target: T2, Histamine H3 receptor (Rattus norvegicus, UniProt Q9QYN8)
Description: Antagonist activity at rat histamine H3 receptor expressed in human HEK293 cells assessed as inhibition of forskolin-induced cAMP release pretreated 10 mins prior forskolin stimulation measured after 4.5 hrs by spectrofluorimetric analysis

Liver microsomes = conditions: human
Description: Unbound intrinsic clearance in human liver microsomes

in vitro [17] = conditions: human, plasma
Description: Fraction unbound in human plasma

Homo sapiens [18] = species on record: Homo sapiens; assay: Selectivity ratio of Ki for human histamine H4 receptor to Ki for human histamine H3 receptor
in vivo [19] = conditions: beagle, dog, po; remark: listed apart in the source
Description: Toxicity in po dosed beagle dog administered for 7 days

in vivo [20] = conditions: Sprague-Dawley, rat, plasma, po
Description: AUC (0 to 24 hrs) in po dosed Sprague-Dawley rat administered for 14 days

Histamine H3 receptor [21] = target: T2, Histamine H3 receptor; remark: listed apart in the source
Description: Displacement of [3H]-n-alpha-methylhistamine from rat histamine H3 receptor homogenate after 60 mins by scintillation counting

in vivo [22] = conditions: beagle, dog, po, 50 mg/kg
Canis familiaris [23] = assay: Toxicity in beagle dog assessed as compound-induced cadiomyocyte vacuole formation at 30 mg/kg, po administered for 7 days; type: organism-based, Canis lupus familiaris; parameters: dose 30 mg/kg, route oral; conditions: in vivo, 168 h
[24] = AUC in beagle dog at 30 mg/kg, po administered for 7 days; type: ADME, organism-based, Canis lupus familiaris; parameters: dose 30 mg/kg, route oral; conditions: plasma
[25] = AUC in beagle dog at 50 mg/kg, po administered for 7 days measured on day 1; type: ADME, organism-based, Canis lupus familiaris; parameters: dose 50 mg/kg, route oral; conditions: plasma
Canis familiaris [26] = assay: Toxicity in beagle dog assessed as testicular degradation at 30 mg/kg, po administered for 7 days; type: organism-based, Canis lupus familiaris; parameters: dose 30 mg/kg, route oral; conditions: in vivo, 168 h
Canis familiaris [27] = assay: Toxicity in beagle dog assessed as convulsion at 50 mg/kg, po administered for 7 days measured on day 2; type: organism-based, Canis lupus familiaris; parameters: dose 50 mg/kg, route oral; conditions: in vivo, 168 h
[28] = AUC in Sprague-Dawley rat at 10 to 300 mg/kg, po administered for 14 days measured on day 1; type: ADME, organism-based; parameters: dose 10-300 mg/kg, route oral; conditions: plasma
[29] = human, thle, 24 h
Description: Toxicity in human THLE cells assessed as drug-induced phospholipid accumulation after 24 hrs by Hoechst staining-based microscopic analysis

Rattus norvegicus [30] = assay: Toxicity in Sprague-Dawley rat assessed as compound-induced phospholipidosis in lung at >= 50 mg/kg, po administered for 14 days; type: organism-based; parameters: dose 50 mg/kg, route oral; conditions: in vivo, 336 h
[31] = AUC in Sprague-Dawley rat at >[…] mg/kg, po administered for 14 days measured on day 1; type: ADME, organism-based; conditions: plasma, 50 mg/kg
Rattus norvegicus [32] = assay: Toxicity in Sprague-Dawley rat assessed as compound-induced phospholipidosis in liver at >= 50 mg/kg, po administered for 14 days; type: organism-based; parameters: dose 50 mg/kg, route oral; conditions: in vivo, 336 h
[33] = Cmax in Sprague-Dawley rat at 400 mg/kg, po administered for 4 days; type: ADME, organism-based; parameters: dose 400 mg/kg, route oral; conditions: in vivo
[34] = AUC in Sprague-Dawley rat at 5 mg/kg, po administered for 4 days; type: ADME, organism-based; parameters: dose 5 mg/kg, route oral; conditions: plasma
[35] = Cmax in po dosed Sprague-Dawley rat administered for 4 days; type: ADME, organism-based; parameters: route oral; conditions: in vivo
Rattus norvegicus [36] = assay: Toxicity in Sprague-Dawley rat assessed as compound-induced phospholipidosis at 5 to 30 mg/kg, po administered for 14 days; type: organism-based; parameters: dose 5-30 mg/kg, route oral; conditions: in vivo, 336 h
Canis familiaris [37] = assay: Toxicity in beagle dog assessed as compound-induced cadiomyocyte vacuole formation at 10 mg/kg, po administered for 7 days; type: organism-based, Canis lupus familiaris; parameters: dose 10 mg/kg, route oral; conditions: in vivo, 168 h
[38] = Apparent permeability across apical to basolateral side in MDCK cells at 2 uM; type: ADME, cell-based, Canis lupus familiaris; conditions: dog
[39] = Toxicity in po dosed Sprague-Dawley rat administered for 4 days; type: organism-based; conditions: in vivo
Rattus norvegicus [40] = assay: Toxicity in Sprague-Dawley rat assessed as compound-induced phospholipidosis in lung at >= 50 mg/kg, po administered for 4 days; type: organism-based; parameters: dose 50 mg/kg, route oral; conditions: in vivo, 96 h
[41] = AUC in Sprague-Dawley rat at >[…] mg/kg, po administered for 4 days; type: ADME, organism-based; conditions: plasma, 50 mg/kg
Rattus norvegicus [42] = assay: Toxicity in Sprague-Dawley rat assessed as compound-induced phospholipidosis in kidney at >= 50 mg/kg, po administered for 4 days; type: organism-based; parameters: dose 50 mg/kg, route oral; conditions: in vivo, 96 h
[43] = AUC (0 to 24 hrs) in po dosed Sprague-Dawley rat administered for 4 days; type: ADME, organism-based; parameters: time < 24 hr, route oral; conditions: plasma
[44] = Genotoxicity in micronucleus
[45] = target: Voltage-gated inwardly rectifying potassium channel KCNH2 (Homo sapiens, UniProt Q12809); assay: Inhibition of human Erg expressed in human HEK293 cells; type: cell-based
Rattus norvegicus [46] = assay: Toxicity in Sprague-Dawley rat assessed as compound-induced phospholipidosis at 30 mg/kg, po administered for 14 days; type: organism-based; parameters: dose 30 mg/kg, route oral; conditions: in vivo, 336 h
Rattus norvegicus [47] = assay: Toxicity in Sprague-Dawley rat assessed as mortality at 400 mg/kg, po administered for 4 days; type: organism-based; parameters: dose 400 mg/kg, route oral; conditions: in vivo, 96 h
Canis familiaris [48] = assay: Toxicity in beagle dog assessed as compound-induced cadiomyocyte vacuole formation at 25 mg/kg, po administered for 7 days; type: organism-based, Canis lupus familiaris; parameters: dose 25 mg/kg, route oral; conditions: in vivo, 168 h
Rattus norvegicus [49] = assay: Toxicity in Sprague-Dawley rat assessed as salivation at >= 100 mg/kg, po administered for 14 days; type: organism-based; parameters: dose 100 mg/kg, route oral; conditions: in vivo, 336 h
Canis familiaris [50] = assay: Toxicity in beagle dog assessed as convulsion at 30 mg/kg, po administered for 7 days measured on day 3; type: organism-based, Canis lupus familiaris; parameters: dose 30 mg/kg, route oral; conditions: in vivo, 168 h
Rattus norvegicus [51] = assay: Toxicity in Sprague-Dawley rat assessed as decrease in body weight at 300 mg/kg, po administered for 14 days; type: organism-based; parameters: dose 300 mg/kg, route oral; conditions: in vivo, 336 h
[52] = Ratio of drug uptake in brain to plasma of Sprague-Dawley rat; type: ADME; conditions: read-out: BPR
[53] = AUC in Sprague-Dawley rat at 300 mg/kg, po administered for 14 days; type: ADME, organism-based; parameters: dose 300 mg/kg, route oral; conditions: plasma
Rattus norvegicus [54] = assay: Toxicity in Sprague-Dawley rat assessed as decrease in food intake at 300 mg/kg, po administered for 14 days; type: organism-based; parameters: dose 300 mg/kg, route oral; conditions: in vivo, 336 h

T1 sequence (Q9Y5N1 whole entry): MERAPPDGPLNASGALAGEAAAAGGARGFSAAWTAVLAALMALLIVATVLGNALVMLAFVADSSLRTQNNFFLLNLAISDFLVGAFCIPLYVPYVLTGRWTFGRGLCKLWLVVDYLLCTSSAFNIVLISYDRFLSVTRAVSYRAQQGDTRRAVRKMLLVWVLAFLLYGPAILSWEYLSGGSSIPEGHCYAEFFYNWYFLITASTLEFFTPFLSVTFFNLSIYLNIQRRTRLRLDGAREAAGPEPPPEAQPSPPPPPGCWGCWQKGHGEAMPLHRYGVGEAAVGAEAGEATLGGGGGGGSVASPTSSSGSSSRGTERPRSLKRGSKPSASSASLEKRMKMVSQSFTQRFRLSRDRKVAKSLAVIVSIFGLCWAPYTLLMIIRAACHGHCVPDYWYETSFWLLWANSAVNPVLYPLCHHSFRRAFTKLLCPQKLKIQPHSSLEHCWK
T2 sequence (Q9QYN8 whole entry): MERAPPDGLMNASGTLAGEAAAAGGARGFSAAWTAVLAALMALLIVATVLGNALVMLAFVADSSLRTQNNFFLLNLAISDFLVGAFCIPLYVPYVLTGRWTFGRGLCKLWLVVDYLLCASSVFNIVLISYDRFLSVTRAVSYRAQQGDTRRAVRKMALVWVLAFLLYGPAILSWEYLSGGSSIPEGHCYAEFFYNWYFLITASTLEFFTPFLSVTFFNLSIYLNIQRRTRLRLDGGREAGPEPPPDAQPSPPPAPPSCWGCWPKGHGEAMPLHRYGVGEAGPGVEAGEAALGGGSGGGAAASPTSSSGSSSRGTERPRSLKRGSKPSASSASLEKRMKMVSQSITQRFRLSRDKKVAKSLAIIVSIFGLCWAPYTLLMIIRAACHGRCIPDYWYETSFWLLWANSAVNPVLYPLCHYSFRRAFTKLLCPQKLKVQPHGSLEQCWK
Chain of Voltage-gated inwardly rectifying potassium channel KCNH2 (Q12809 whole entry): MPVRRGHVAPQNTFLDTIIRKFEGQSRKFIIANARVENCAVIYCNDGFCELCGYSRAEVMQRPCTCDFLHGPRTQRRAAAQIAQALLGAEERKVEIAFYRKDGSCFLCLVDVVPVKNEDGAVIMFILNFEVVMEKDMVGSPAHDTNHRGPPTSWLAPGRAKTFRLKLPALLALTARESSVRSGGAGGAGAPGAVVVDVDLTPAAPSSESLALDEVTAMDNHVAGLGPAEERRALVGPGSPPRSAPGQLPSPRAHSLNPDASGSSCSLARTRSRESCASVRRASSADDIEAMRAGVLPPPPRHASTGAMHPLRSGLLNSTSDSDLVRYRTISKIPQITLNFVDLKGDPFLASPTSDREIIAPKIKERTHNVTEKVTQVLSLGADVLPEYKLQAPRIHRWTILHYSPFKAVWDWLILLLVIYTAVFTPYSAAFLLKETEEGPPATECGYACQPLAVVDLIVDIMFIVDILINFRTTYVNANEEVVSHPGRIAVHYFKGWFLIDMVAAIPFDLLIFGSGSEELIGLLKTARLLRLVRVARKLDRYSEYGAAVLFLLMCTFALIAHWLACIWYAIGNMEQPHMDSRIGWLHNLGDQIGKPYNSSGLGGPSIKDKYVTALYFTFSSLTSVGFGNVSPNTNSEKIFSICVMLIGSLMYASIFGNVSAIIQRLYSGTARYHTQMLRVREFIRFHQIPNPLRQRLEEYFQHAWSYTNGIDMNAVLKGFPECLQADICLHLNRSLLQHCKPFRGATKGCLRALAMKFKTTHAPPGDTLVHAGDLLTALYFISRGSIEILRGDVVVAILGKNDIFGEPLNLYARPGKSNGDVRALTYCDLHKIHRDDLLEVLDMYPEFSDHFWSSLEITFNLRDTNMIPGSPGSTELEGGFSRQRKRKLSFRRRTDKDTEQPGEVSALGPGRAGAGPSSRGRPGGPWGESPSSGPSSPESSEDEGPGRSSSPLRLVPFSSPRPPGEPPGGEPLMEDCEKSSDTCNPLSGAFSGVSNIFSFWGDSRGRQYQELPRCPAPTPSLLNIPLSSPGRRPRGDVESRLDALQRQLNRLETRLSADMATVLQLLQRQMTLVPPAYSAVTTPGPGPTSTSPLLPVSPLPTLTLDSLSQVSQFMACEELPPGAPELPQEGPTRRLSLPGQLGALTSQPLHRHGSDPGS
Description for physchem: Dissociation constant, pKa of the compound

SMILES	MTD at 336 h (in vivo [1]) [mg/kg]	fraction unbound (in vitro [3])	Papp A→B at 2 µM (in vitro [4]) [×10⁻⁶ cm/s]	Tmax at 336 h (in vivo [5]) [min]	efflux ratio (MDR1 (human))	AUC at 24 h (in vivo [7]) [ng·h/mL]	half-life (in vitro [8]) [min]	Tmax at 96 h (in vivo [10]) [min]	Cmax at 168 h (in vivo [11]) [µM]	Ki (Histamine H3 receptor [12])	Ki (Histamine H3 receptor [13])	Tmax at 168 h (in vivo [14]) [min]	Cmax at 336 h (in vivo [15]) [µM]	Ki (Histamine H3 receptor [16]) [nM]	CL free (Liver microsomes) [mL/min/kg]	pKa (physchem)	fraction unbound (in vitro [17])	MTD at 168 h (in vivo [19]) [mg/kg]	AUC at 24 h (in vivo [20]) [ng·h/mL]	Ki (Histamine H3 receptor [21]) [nM]	further results
CC(C)CNC(=O)[C@H]1C[C@@](F)(c2ccc(CN3CCCC3)c(F)c2)C1 [PF-03654764]	≥ 300	0.56	38.8	30	0.96	18200	> 120	30	18	1.2 nM and 1.05 nM	1.4 nM	30	23	7.9	< 5	9.2	0.34	≥ 15	67400	19	Ratio Ki (Homo sapiens [2]): > 1000; Ratio Ki (Homo sapiens [6]): > 1000; bioavailability (in vivo [9]): 20.2%; Ratio Ki (Homo sapiens [18]): > 1000
CC(=O)N(C)C[C@H]1C[C@H](c2ccc(CN3CCCC3)c(Cl)c2)C1	≥ 300		53.4	30	1.27	2910	> 120	30	5.13	3.3 nM	14 nM and 12.9 nM	30	6.29	21	< 8	9.3	0.24	< 30	4440	160	Cmax (in vivo [22]): 3200 ng/mL; Activity (Canis familiaris [23]): Toxic; AUC at 168 h [24]: 2910 ng·h/mL; AUC at 168 h [25]: 4780 ng·h/mL; Activity (Canis familiaris [26]): Toxic; Activity (Canis familiaris [27]): Toxic; AUC at 336 h [28]: ≤ 4440 ng·h/mL; MED [29]: 245.3 µM
c1cnc(OC[C@H]2C[C@H](c3ccc(CN4CCCC4)cc3)C2)nc1	≥ 5	0.47	32.5	30	0.9		> 120	30		12 nM	8.7 nM	30	0.402	79	< 8	9.8	0.44		1280	82	Activity (Rattus norvegicus [30]): Toxic; AUC at 336 h [31]: 21300 ng·h/mL; Activity (Rattus norvegicus [32]): Toxic; MED [29]: 119.5 µM
c1cc([C@H]2C[C@@H](CN3CCOCC3)C2)ccc1CN1CCCC1	≥ 30	0.72	8.2	30	< 0.95	740	> 120	30	0.148	0.89 nM	2.2 nM	30	5	3.5	< 8	7.7	0.78	< 10	15500	7.7	Cmax [33]: 3920 ng/mL; AUC at 96 h [34]: 1240 ng·h/mL; Cmax [35]: 0.302 µM; Activity (Rattus norvegicus [36]): Toxic; Activity (Canis familiaris [37]): Toxic; Papp A→B at 2 µM [38]: > 10 ×10⁻⁶ cm/s; MTD at 96 h [39]: ≥ 5 mg/kg; Activity (Rattus norvegicus [40]): Toxic; AUC at 96 h [41]: 17400 ng·h/mL; Activity (Rattus norvegicus [42]): Toxic; AUC at 24 h [43]: 1240 ng·h/mL; Activity [44]: Non-toxic; IC50 [45]: 300000 nM; Activity (Rattus norvegicus [46]): Non-toxic; Activity (Rattus norvegicus [47]): Toxic; Activity (Canis familiaris [48]): Toxic
CN(C)Cc1ccc(-c2ccc(CN(C)C)cc2)cc1											1.3 nM				219					9.3	
CCNC(=O)[C@H]1C[C@@](F)(c2ccc(CN3CCCC3)c(F)c2)C1 [PF-03654746]	30	0.7	44.7	30	1.1	18900	> 120	30	13	1.7 nM	2.3 nM	30	43.5	8.9	< 5	9.2	0.66	≥ 15	189000	37	Activity (Rattus norvegicus [49]): Toxic; Ratio Ki (Homo sapiens [2]): > 1000; Ratio Ki (Homo sapiens [6]): > 1000; bioavailability (in vivo [9]): 25.9%; Activity (Canis familiaris [50]): Toxic; Activity (Rattus norvegicus [51]): Toxic; Kp [52]: 2.1; AUC at 336 h [53]: 189000 ng·h/mL; Activity (Rattus norvegicus [54]): Toxic; Ratio Ki (Homo sapiens [18]): > 1000; MED [29]: 302.4 µM
